Publication PMC2693246 (ACS chemical biology, 2009)
In brackets after ≈: the same amount, converted by molar mass. Entries after “also recorded” stand apart in the source; their conditions may differ.

Assays:
ftuFabI [1] = molecular target: T1, ftuFabI (Francisella tularensis subsp. tularensis, UniProt Q5NGQ3); format: biochemical
ftuFabI [2] = molecular target: T1, ftuFabI; format: biochemical; remark: listed apart in the source
F. tularensis LVS = assay: microbe, parasite or virus in culture; format: cell-based, Francisella tularensis; conditions: for MIC90: Francisella tularensis
ftuFabI [3] = molecular target: T1, ftuFabI; assay: biochemical; format: biochemical
F. tularensis Schu4 = tested on: F. tularensis Schu4; design: species or system mice; conditions: mouse, in vivo; for %Survival: ip, 200 mg/kg
ecFabI = conditions: cited from earlier work
in vitro = conditions: African green monkey

T1 sequence (Q5NGQ3 1-260): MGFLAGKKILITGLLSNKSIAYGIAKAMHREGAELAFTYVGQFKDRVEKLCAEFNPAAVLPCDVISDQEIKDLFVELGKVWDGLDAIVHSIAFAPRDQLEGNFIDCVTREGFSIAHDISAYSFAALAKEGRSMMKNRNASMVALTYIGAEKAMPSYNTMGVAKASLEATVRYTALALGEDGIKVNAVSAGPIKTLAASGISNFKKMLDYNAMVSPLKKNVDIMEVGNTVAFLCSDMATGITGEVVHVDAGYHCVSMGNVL

Compound | Type of Inhibition (ftuFabI [1]) | MIC90 (F. tularensis LVS) | Ki (ftuFabI [3]) | k2 (ftuFabI [3]) | k−2 (ftuFabI [3]) | residence time (ftuFabI [3]) | Median Survival (F. tularensis Schu4) | efficacy in the 10-day animal model of infection (F. tularensis Schu4) | %Survival (F. tularensis Schu4) | CC50 (in vitro) | other results
Oc1cc(F)ccc1Oc1ccccc1 [Compound 3, 5-fluoro-2-phenoxyphenol] | not a slow-onset inhibitor; also recorded: Rapid equilibrium | 320 ± 20 ng/mL (≈ 1.57 µM) |  |  |  |  |  |  |  |  | fold decrease in binding affinity compared to 4 and 7 (ftuFabI [2]): 150 fold
[H]/N=C(/N)N[C@H]1[C@H](O)[C@@H](O)[C@H](O[C@@H]2O[C@@H](C)[C@](O)(C=O)[C@H]2O[C@@H]2O[C@@H](CO)[C@H](O)[C@@H](O)[C@@H]2NC)[C@@H](N/C(N)=N\[H])[C@@H]1O [Streptomycin, reference compound] |  | 2000 ng/mL (≈ 3.44 µM) |  |  |  |  |  |  |  |  | 
C[C@H]1c2cccc(O)c2C(=O)C2=C(O)[C@]3(O)C(=O)C(C(N)=O)=C(O)[C@@H](N(C)C)[C@@H]3[C@@H](O)[C@@H]21 [Doxycycline, reference compound] |  | 750 ± 350 ng/mL (≈ 1.69 µM) |  |  |  |  |  |  |  |  | 
Oc1cc(Cl)ccc1Oc1ccccc1 [Compound 4, 5-chloro-2-phenoxyphenol] | Slow-onset | 1 ± 1 ng/mL (≈ 0.00453 µM) | 665 ± 70 nM | 0.11 ± 0.01 min⁻¹ | 0.033 ± 0.002 min⁻¹ | 30 ± 2 min | 6.8 days | demonstrated efficacy | 11% | 60000 ± 14000 ng/mL (≈ 272 µM) | fold decrease in affinity for ftuFabI compared to triclosan (ftuFabI [1]): 37 fold; fold higher affinity for ecFabI than triclosan (ecFabI): 7 fold
CCCc1ccc(Oc2ccccc2)c(O)c1 [Compound 9, 5-propyl-2-phenoxyphenol] | slow-onset inhibitors | 0.18 ± 0.14 ng/mL (≈ 0.000788 µM) | 375 ± 6 nM | 1.66 ± 0.01 min⁻¹ | 0.017 ± 0.002 min⁻¹ | 59 ± 2 min | 7.8 days | demonstrated efficacy | 39% | 62000 ± 3000 ng/mL (≈ 272 µM) | fold more potent (MIC90) than doxycycline (F. tularensis LVS): > 4,000 fold; fold more potent (MIC90) than gentamicin (F. tularensis LVS): more than 22,000 fold
CNC(C)C1CCC(N)C(OC2C(N)CC(N)C(OC3OCC(C)(O)C(NC)C3O)C2O)O1 (stereo not shown) [Gentamicin, reference compound] |  | 4000 ng/mL (≈ 8.38 µM) |  |  |  |  |  |  |  |  | 
Cc1ccc(Oc2ccccc2)c(O)c1 [Compound 7, 5-methyl-2-phenoxyphenol] | slow-onset inhibitors | 160 ± 70 ng/mL (≈ 0.799 µM) |  |  |  |  |  |  |  |  | 
Oc1cc(Cl)ccc1Oc1ccc(Cl)cc1Cl [Compound 1, triclosan, reference compound] | uncompetitive inhibitor; also recorded: Slow-onset | 0.015 ng/mL (≈ 5.18e-05 µM) | 407 ± 48 nM | 0.56 ± 0.04 min⁻¹ | 0.025 ± 0.003 min⁻¹ | 40 ± 3 min | 7.8 days | demonstrated efficacy | 22% | 14000 ± 1000 ng/mL (≈ 48.4 µM) | fold tighter binding to E:NAD+ than to E:NADH (ftuFabI [1]): approximately 90,000 fold
